According to US12702654B2, “Compositions and methods for treating homocystinuria and other conditions using polyamines” (THE REGENTS OF THE UNIVERSITY OF COLORADO, priority 2020, dated 2026):

System: HO HCU mice
Assay: Plasma metabolite levels (tHcy, methionine cycle amino acids, SAM, SAH) in HO HCU mice
Assay type: in vivo, mouse
Procedure: It is noted that WT mice (n=6) include untreated controls. HO HCU mice (N=8, 4 of each sex in each group) were either untreated or treated with about 3.0% (w/v) glycine w/v or about 3.0% (w/v) serine given in drinking water supplied ad libitum for one week. Plasma samples were taken and Hcy and cysteine levels were determined. *** denotes a P value <0.0001.
In accordance with these methods, HO HCU mice (N=8, 4 of each sex in each group) were treated with either about 3.0% glycine w/v or about 3.0% w/v serine given in drinking water supplied ad libitum for one week in the presence and absence of about 3.0% w/v betaine. Plasma samples were taken from the mice at various times and Hcy levels were determined.
Plasma Hcy levels were determined from HO HCU mice (n=8 per group) in the presence and absence of either about 5.0% w/v sodium formate alone or in combination with about 3.0% betaine given in drinking water given ad libitum.
In one exemplary method, mice were given zinc in drinking water. For this example, 8 HO HCU mice were provided drinking water supplemented with zinc (e.g. 0.05% w/v Zinc sulfate) given ad libitum for one week.
In another exemplary method, the transsulfuration pathway and methionine-folate cycle pathways, as show in the sematic illustrated in FIG. 18A, were assessed. In brief, three experimental groups (n=8 for each group) of male mice consisting of either untreated WT controls or HO HCU mice in the presence or absence of betaine treatment. Betaine was administered by dissolving the compound in drinking water at 30 g/l and was supplied ad libitum to the mice for one week. Treatment water was replenished twice per week.
A comparative reference data set was generated for these mice by examining plasma levels of tHcy, methionine, cysteine, serine, glycine, dimethylglycine, methylglycine (MG, SAM and SAH). In brief, determination of plasma levels of amino acids relevant to the methionine cycle were determined using methods similar to those described in Stabler et al., Blood. 81 (1993) 3404-3413, incorporated in its entirety herein. Determination of hepatic 5-methylTHF was performed by liquid chromatography-tandem mass spectrometry using methods similar to those described in Witham et al., PLoS One. 8 (2013) e77923, incorporated in its entirety herein. The global metabolomic analysis of methionine and folate cycle related metabolites was carried out by Metabolon, Inc. Briefly, sample preparation was performed utilizing the automated MicroLab STAR® system. Sample preparation was performed using a proprietary series of organic and aqueous extractions to remove the protein fraction while allowing maximum recovery of small molecules. The resulting extract was divided into two fractions: one for analysis by liquid chromatography and one for analysis by gas chromatography. Each sample was then frozen and dried under vacuum. The LC/mass spectrometer portion of the platform was based on a Waters ACQUITY UPLC and a Thermo-Finnigan LTQ mass spectrometer, which consisted of an electrospray ionization source and linear ion-trap mass analyzer. Samples were analyzed on a Thermo-Finnigan Trace DSQ fast-scanning single-quadrupole mass spectrometer using electron impact ionization. Identification of known chemical entities was based on comparison to library entries of authenticated standards. Tissue polyamines putrescine, spermidine and spermine and 5-methylthioadenosine (MTA) were determined by liquid chromatography-tandem mass spectrometry using methods similar to those described in Stevens et al., J Chromatogr A 1217 (2010) 3282-3288, incorporated in its entirety herein.

[1] = HO HCU mice, betaine 30 g/l in drinking water, one week
[2] = HO model, betaine treatment, P<0.0001

C[N+](C)(C)CC(=O)O [betaine, N,N,N-trimethylglycine]
increase of plasma Met compared to untreated HCU mice [1]: 3 fold | plasma DMG [1]: strongly increased | plasma MG [1]: strongly increased | plasma SAH [1]: significantly decreased, but not normalized | plasma SAM [1]: significantly decreased, but not normalized | plasma glycine [1]: did not change significantly | plasma serine [1]: did not change significantly | decrease in plasma tHcy (HO HCU mice, betaine 30 g/l in drinking water, one week, P<0.0001): ~60% | depletion of plasma total cysteine (HO HCU mice, betaine 30 g/l in drinking water, one week, remained lower than WT): significantly ameliorated | decrease in AdoHcy levels [2]: fivefold decrease | plasma DMG [2]: increase | plasma MG [2]: increase | plasma cysteine [2]: increase | plasma methionine [2]: increase | decrease in plasma AdoMet (HO model, betaine treatment, P=0.0039): 40% | reduction of Hcy levels by standard treatment alone (betaine alone, as previously observed): 15-25%
